Source: US12692253B2, “Antimicrobial compounds and methods” (Curza Global, LLC, priority 2019, dated 2026)

Legend:
[1] = system: E. coli S30 extract (bacterial protein synthesis); test: E. coli S30 extract coupled transcription-translation luciferase assay (inhibition of bacterial protein synthesis); type: biochemical; details: class by IC50 or % inhibition @ 1 μM, read-out: S30 IC50 (μM/% inhib.)
Procedure: E. coli S30 extract: Inhibition of bacterial protein synthesis was determined using the E. coli S30 Extract System for Circular DNA (Promega catalog #L-2010) and Luciferase Assay Reagent (Promega catalog #E1500) with slight modifications to a published protocol. Fyfe, C., Sutcliffe, J. A. and Grossman, T. H. (2012) “Development and characterization of a Pseudomonas aeruginosa in vitro coupled transcription-translation assay system for evaluation of translation inhibitors” J. Microbiol. Methods 90(3), 256-261.
Compounds were serial diluted in 0.5 mL microcentrifuge tubes by mixing and transferring 50 μL from the highest concentration to 50 μL of water, mixing and transferring 50 μL of this 2-fold dilution to 50 μL of water. This mixing and transferring was repeated so that there are a total of 8 tubes with serial dilutions of compound at 10× the desired screening concentration that are ultimately diluted to 1× by the addition of S30 luciferase synthesis mixture. Serial dilutions of compounds were added (2 μL) to wells in a black round bottom 96-well plate. Water (2 μL) was used as a “no inhibitor” control in 4 wells/plate. No DNA control reaction mixture (20 μL; see below) was used as a control in 4 wells/plate for background luminescence. S30 luciferase synthesis mixture (18 μL; see below) was added to wells with compounds or water mixture and incubated at 37° C. for 1 hour. Reactions were stopped by transferring to 4° C. refrigerator for 5 minutes then 25 μL of luciferase activity mix was added. Luminescence was measured using a BioTek Synergy HTX plate reader. % Inhibition was determined relative to no inhibitor controls. • S30 luciferase synthesis mixture: • 445 μL S30 extract, circular • 712 μL S30 Premix without amino acids • 4.45 μL pBESTluc™ DNA (1 μg/μL) • 78 μL complete amino acid mixture • 267 μL water • No DNA control: • 20 μL S30 extract, circular • 32 μL S30 Premix without amino acids • 7 μL complete amino acid mixture • 21 μL water Rabbit Reticulocyte lysate

[2] = biological target: Rabbit Reticulocyte Lysate (eukaryotic protein synthesis); test: Rabbit reticulocyte lysate luciferase assay (inhibition of eukaryotic protein synthesis); type: biochemical; details: class by IC50 or % inhibition @ 1 μM, read-out: Rabbit reticulocyte IC50 (μM/% inhib.)
Procedure: Inhibition of eukaryotic protein synthesis was determined using the Rabbit Reticulocyte Lysate System, Nuclease-Treated from Promega (catalog #L-4960) with slight modifications to the manufacturer's protocol. Compounds were serial diluted in 0.5 mL microcentrifuge tubes by mixing and transferring 50 μL from the highest concentration to 50 μL of water, mixing and transferring 50 μL of this 2-fold dilution to 50 μL of water. This mixing and transferring was repeated so that there are a total of 8 tubes with serial dilutions of compound at 10× the desired screening concentration that are ultimately diluted to 1× by the addition of rabbit reticulocyte luciferase synthesis mixture. Serial dilutions of compounds were added (2.5 μL) to wells in a black round bottom 96-well plate. Water (2.5 μL) was used as a “no inhibitor” control in 4 wells/plate. No RNA control reaction mixture (2 μL; see below) was used as a control in 4 wells/plate for background luminescence. Rabbit reticulocyte luciferase synthesis mixture (22.5 μL; see below) was added to wells with compounds or water mixture and incubated at 30° C. for 90 minutes. Luciferase assay reagent (25 μL) was added with luminescence measured using a BioTek Synergy HTX plate reader. % Inhibition was determined relative to no inhibitor controls.
Rabbit Reticulocyte Luciferase Synthesis Mixture:
• 1,000 μL rabbit reticulocyte lysate • 5.7 μL Luciferase Control RNA (1 μg/μL) • 26 μL complete amino acid mixture • 395 μL water • No RNA Control • 70 μL rabbit reticulocyte lysate • 2 μL complete amino acid mixture • 28 μL water Minimum Inhibitory Concentration (MIC)

A. baumannn (Ab) = test: Broth microdilution minimum inhibitory concentration (MIC), CLSI; type: cell-based; details: for MIC: Acinetobacter baumannii, read-out: Ab + bicarb MIC; for Ab + bicarb MIC: A. baumannii, growth medium supplemented with sodium bicarbonate
Procedure: (§1) A certified BSL-2 laboratory was used for testing. Compounds were evaluated using the broth microdilution minimum inhibitory concentration (MIC) and minimum bactericidal concentration (MBC) assays defined by Clinical and Laboratory Standards Institute (CLSI) in the M26-A guideline against S. aureus (Sa), E. coli (Ec), K. pneumoniae (Kp), A. baumannn (Ab), E. faecalis (Ef) and P. aeruginosa (Pa).
(§2) MICs were determined using the Clinical Laboratory and Standards Institute (CLSI) Broth Microdilution Method with slight modification. Clinical and Laboratory Standards Institute (2012). “Methods for dilution antimicrobial susceptibility tests for bacteria that grow aerobically; approved standard, 9th ed. M07-A9 Clinical and Laboratory Standards Institute, Wayne, PA” Serial two-fold dilutions of compounds are prepared in sterile clear round-bottom 96-well plates.
(§3) To prepare microdilution trays, two-fold dilutions of antimicrobial agent are prepared in growth medium: Cation-Adjusted Mueller-Hinton Broth (CAMHB), or CAMHB supplemented with sodium bicarbonate (6.25 or 25 mM final concentration prepared from a 1.0M stock solution) or CAMHB supplemented with heat inactivated human serum (Fisher Cat. #BP2657100) 0-50% by adding 200 µL of the highest concentration to be tested (64 μg/mL, for example) in row A, mixing and transferring 100 μL from row A to 100 μL growth medium in row B, then repeating the mixing and transferring through row H of the 96-well plate, discarding the excess […] remaining. This slight modification to the CLSI protocol enables evaluation of MICs for 3 compounds per plate in triplicate, albeit with only 8 compound dilutions (CLSI protocol enables 2 compounds in triplicate with 10 dilutions). Bacterial suspensions are added to a final concentration of 5×10^4 CFU/well by adding 5 μL of a 1:10 dilution of a 0.5 McFarland suspension (1×10^8 CFU/mL) for each bacterium evaluated. Bacterial suspensions were prepared using the growth method described by CLSI. Well-isolated colonies (3-5 from an agar plate) were selected using a sterile loop and used to inoculate a tube containing 4 mL of CAMHB. The cultures are incubated at 35±2° C. until it achieves or exceeds the turbidity of the 0.5 McFarland standard, determined by measuring A600 (usually two to six hours). When growth exceeds a 0.5 McFarland standard, the turbidity is adjusted with broth to be equivalent to a 0.5 McFarland standard.

E. coli (Ec) = test: as above; type: cell-based; details: growth medium supplemented with sodium bicarbonate; for MIC: Escherichia coli, read-out: E. coli + bicarb MIC
Procedure: as §1, §2, §3

E. faecalis (Ef) = test: as above; type: cell-based; details: growth medium supplemented with sodium bicarbonate; for MIC: Enterococcus faecalis, read-out: Ef + bicarb MIC
Procedure: as §1, §2, §3

P. aeruginosa (Pa) = test: as above; type: cell-based; details: growth medium supplemented with sodium bicarbonate; for MIC: Pseudomonas aeruginosa, read-out: Pa MIC + bicarb
Procedure: as §1, §2, §3

S. aureus (Sa) = test: as above; type: cell-based; details: growth medium supplemented with sodium bicarbonate; for MIC: Staphylococcus aureus, read-out: Sa + bicarb MIC
Procedure: as §1, §2, §3

Compound | IC50 [1] | IC50 [2] | MIC (A. baumannn (Ab)) | MIC (E. coli (Ec)) | MIC (E. faecalis (Ef)) | MIC (P. aeruginosa (Pa)) | MIC (S. aureus (Sa)) | Ab + bicarb MIC (A. baumannn (Ab)) | E. coli + bicarb MIC (E. coli (Ec)) | Ef + bicarb MIC (E. faecalis (Ef)) | Pa MIC + bicarb (P. aeruginosa (Pa)) | Sa + bicarb MIC (S. aureus (Sa))
CC(C)(N)C(=O)N1CCN(C(=O)Nc2ccn(-c3ccc(CN4C[C@@H]5[C@@H](N)[C@@H]5C4)cc3)c(=O)n2)CC1 [Compound 3] | < 0.5 µM | ≥ 1 µM | < 8 µg/mL | < 8 µg/mL | < 8 µg/mL | 8 to 32 µg/mL | < 8 µg/mL |  |  |  |  | 
C[C@](N)(CO)C(=O)N1CCN(C(=O)Nc2ccn(-c3ccc(CN4C[C@@H]5[C@@H](N)[C@@H]5C4)cc3)c(=O)n2)CC1 [Compound 4] | < 0.5 µM | ≥ 1 µM | > 32 µg/mL | < 8 µg/mL | < 8 µg/mL | > 32 µg/mL |  |  |  |  |  | 
CC(C)(N)C(=O)N1CCN(C(=O)Nc2ccn(-c3ccc(CN4CCC5(N)CC5C4)cc3)c(=O)n2)CC1 (stereo not shown) [Compound 13] | 0.5 to 1 µM | ≥ 1 µM | > 32 µg/mL | < 8 µg/mL | < 8 µg/mL | > 32 µg/mL | < 8 µg/mL |  |  |  |  | 
CC(C)(N)C(=O)N1CCN(C(=O)Nc2ccn(-c3ccc(CN4C[C@@H]5[C@H](N)[C@@H]5C4)cc3)c(=O)n2)CC1 [Compound 14] | < 0.5 µM | ≥ 1 µM | > 32 µg/mL | < 8 µg/mL | < 8 µg/mL | > 32 µg/mL | < 8 µg/mL |  |  |  |  | 
CC(C)(N)C(=O)N1CCN(C(=O)Nc2ccn(-c3ccc(CN4CCC5(N)CC5C4)cc3)c(=O)n2)CC1 (stereo not shown) [Compound 20] | ≥ 1 µM | ≥ 1 µM |  |  |  |  |  | + (An MIC (μg/mL) value that is 32 μg/mL or greater) | +++ (An MIC value (μg/mL) that is less than 8 μg/mL) | ++ (An MIC value (μg/mL) that is 8 μg/mL or greater and less than 32 μg/mL) | + (An MIC (μg/mL) value that is 32 μg/mL or greater) | +++ (An MIC value (μg/mL) that is less than 8 μg/mL)
CC(C)(N)C(=O)N1CCN(C(=O)Nc2ccn(-c3ccc(CN4CCC5(N)CC5C4)cc3)c(=O)n2)CC1 (stereo not shown) [Compound 23] | < 0.5 µM | ≥ 1 µM |  |  |  |  |  | + (An MIC (μg/mL) value that is 32 μg/mL or greater) | +++ (An MIC value (μg/mL) that is less than 8 μg/mL) | +++ (An MIC value (μg/mL) that is less than 8 μg/mL) | + (An MIC (μg/mL) value that is 32 μg/mL or greater) | +++ (An MIC value (μg/mL) that is less than 8 μg/mL)
C[C@](N)(CO)C(=O)N1CCN(C(=O)Nc2ccn(-c3ccc(CN4C[C@@H]5[C@@H](N)[C@@H]5C4)c(Cl)c3)c(=O)n2)CC1 [Compound 25] | < 0.5 µM | ≥ 1 µM | > 32 µg/mL | < 8 µg/mL | > 32 µg/mL | > 32 µg/mL | < 8 µg/mL |  |  |  |  | 
CC(C)(N)C(=O)N1CCN(C(=O)Nc2ccn(-c3ccc(CN4C[C@@H]5[C@@H](N)[C@@H]5C4)cc3)c(=O)n2)C(c2ccccc2)C1 (stereo partly shown) [Compound 27] | < 0.5 µM | ≥ 1 µM |  | < 8 µg/mL |  | > 32 µg/mL | 8 to 32 µg/mL |  |  |  |  | 
C[C@@H]1CN(C(=O)C(C)(C)N)CCN1C(=O)Nc1ccn(-c2ccc(CN3C[C@@H]4[C@@H](N)[C@@H]4C3)cc2)c(=O)n1 [Compound 28] | < 0.5 µM | ≥ 1 µM | > 32 µg/mL | < 8 µg/mL | < 8 µg/mL | > 32 µg/mL | < 8 µg/mL |  |  |  |  | 
CC(C)(N)C(=O)N1CCN(C(=O)Nc2ccn(-c3ccc(CN4CC5CCC(C4)C5N)cc3)c(=O)n2)CC1 (stereo not shown) [Compound 29] | 0.5 to 1 µM | ≥ 1 µM | > 32 µg/mL | < 8 µg/mL | 8 to 32 µg/mL | > 32 µg/mL | < 8 µg/mL |  |  |  |  | 
CC(C)(N)C(=O)N1CCN(C(=O)Nc2ccn(-c3ccc(CN4CC[C@H]5[C@H](N)[C@H]5C4)cc3)c(=O)n2)CC1 [Compound 30] | < 0.5 µM | ≥ 1 µM | 8 to 32 µg/mL | < 8 µg/mL | < 8 µg/mL | 8 to 32 µg/mL | < 8 µg/mL |  |  |  |  | 
C[C@](N)(CO)C(=O)N1CCN(C(=O)Nc2ccn(-c3ccc(CN4CC5(CC(N)C5)C4)cc3)c(=O)n2)CC1 [Compound 36] | < 0.5 µM | ≥ 1 µM | > 32 µg/mL | < 8 µg/mL | > 32 µg/mL | > 32 µg/mL |  |  |  |  |  | 
CC(C)(N)C(=O)N1CCN(C(=O)Nc2ccn(-c3ccc(CN4CCC5(CCC5N)CC4)cc3)c(=O)n2)CC1 (stereo not shown) [Compound 38] | < 0.5 µM | ≥ 1 µM | > 32 µg/mL |  | 8 to 32 µg/mL |  |  |  |  |  |  | 
CC(C)(N)C(=O)N1CCN(C(=O)Nc2ccn(-c3ccc(CN4CC5(CNC5)C4)cc3)c(=O)n2)CC1 [Compound 46] | < 0.5 µM | ≥ 1 µM |  | < 8 µg/mL | > 32 µg/mL | > 32 µg/mL | 8 to 32 µg/mL |  |  |  |  | 
CC(C)(N)C(=O)N1CCN(C(=O)Nc2ccn(-c3ccc(CN4CC5(CCNCC5)C4)cc3)c(=O)n2)CC1 [Compound 81] | < 0.5 µM | ≥ 1 µM | > 32 µg/mL | < 8 µg/mL |  | > 32 µg/mL | 8 to 32 µg/mL |  |  |  |  | 
C[C@](N)(CO)C(=O)N1CCN(C(=O)Nc2ccn(-c3cccc(CCN4C[C@@H]5[C@@H](N)[C@@H]5C4)c3)c(=O)n2)CC1 [Compound 89] | ≥ 1 µM |  |  | 8 to 32 µg/mL |  | > 32 µg/mL | > 32 µg/mL |  |  |  |  | 
CC(C)(N)C(=O)N1CCN(C(=O)Nc2ccn(-c3ccc(CCN4CCC5CC5(N)C4)cc3)c(=O)n2)CC1 (stereo not shown) [Compound 93] | < 0.5 µM | ≥ 1 µM | > 32 µg/mL | < 8 µg/mL | < 8 µg/mL | < 8 µg/mL |  |  |  |  |  | 
